Tested on: WT Mtb Erdman strain
Experiment: Microplate Alamar Blue Assay (MABA), Mtb growth inhibition
Type: cell-based, Mycobacterium tuberculosis
Details: Mycobacterium tuberculosis, ERDMAN, 168 h, Middlebrook 7H9 media, 7 days at 37° C. in 5% CO2

SMILES	IC50
COc1ccccc1CCCNc1nc(C(F)(F)F)nc2sc(C)cc12 [Example 161, N-(3-(2-methoxyphenyl)propyl)-6-methyl-2-(trifluoromethyl) thieno[2,3-d]pyrimidin-4-amine]	4400 nM
Cc1cc2c(NCC#Cc3ccccc3)nc(C(F)(F)F)nc2s1 [Example 162, 6-methyl-N-(3-phenylprop-2-yn-1-yl)-2-(trifluoromethyl) thieno[2,3-d] pyrimidin-4-amine]	6000 nM
Cc1cc2c(NCC(O)Cc3ccccc3)nc(C(F)(F)F)nc2s1 (stereo not drawn) [Example 163, 1-((6-methyl-2-(trifluoromethyl)thieno[2,3-d]pyrimidin-4-yl)amino)-3-phenylpropan-2-ol]	> 10000 nM
Cc1cc2c(NCCCn3cccc3)nc(C(F)(F)F)nc2s1 [Example 164, N-(3-(1H-pyrrol-1-yl)propyl)-6-methyl-2-(trifluoromethyl) thieno[2,3-d] pyrimidin-4-amine]	1700 nM
Cc1cc2c(NCCCN3CCCc4ccccc43)nc(C(F)(F)F)nc2s1 [Example 165, N-(3-(3,4-dihydroquinolin-1(2H)-yl)propyl)-6-methyl-2-(trifluoromethyl) thieno[2,3-d] pyrimidin-4-amine]	2000 nM
Cc1cc2c(NCCCc3ccccc3)nc(C(F)(F)F)nc2s1 [Example 166, 6-methyl-N-(3-phenylpropyl)-2-(trifluoromethyl) thieno[2,3-d] pyrimidin-4-amine]	< 510 nM
Cc1cc2c(N[C@@H]3C[C@H]3c3ccccc3)nc(C(F)(F)F)nc2s1 [Example 167, 6-methyl-N-((1R,2S)-2-phenylcyclopropyl)-2-(trifluoromethyl) thieno[2,3-d] pyrimidin-4-amine]	490 nM
Cc1cc2c(N[C@H]3C[C@@H]3c3ccccc3)nc(C(F)(F)F)nc2s1 [Example 168, 6-methyl-N-((1S,2R)-2-phenylcyclopropyl)-2-(trifluoromethyl) thieno[2,3-d] pyrimidin-4-amine]	3200 nM
Cc1cc2c(NC(CCc3ccccc3)C(F)(F)F)nc(C(F)(F)F)nc2s1 (stereo not drawn) [Example 169, 6-methyl-N-(1,1,1-trifluoro-4-phenylbutan-2-yl)-2-(trifluoromethyl) thieno[2,3-d] pyrimidin-4-amine]	> 10000 nM
CCc1nc(NCCC(c2ccccc2)c2ccccc2)c2cc(C)sc2n1 [Example 170, N-(3,3-diphenylpropyl)-2-ethyl-6-methylthieno[2,3-d]pyrimidin-4-amine]	360 nM
Cc1cc2c(NCCC(O)c3ccccc3)nc(C(F)(F)F)nc2s1 (stereo not drawn) [Example 171, 3-((6-methyl-2-(trifluoromethyl)thieno [2,3-d]pyrimidin-4-yl)amino)-1-phenylpropan-1-ol]	> 9500 nM
Cc1cc2c(NCCCN(C)c3ccccc3)nc(C(F)(F)F)nc2s1 [Example 172, N1-methyl-N3-(6-methyl-2-(trifluoromethyl)thieno[2,3-d]pyrimidin-4-yl)-N1-phenylpropane-1,3-diamine]	4200 nM
Cc1cc2c(NCCCNc3ccccc3)nc(C(F)(F)F)nc2s1 [Example 173, N1-(6-methyl-2-(trifluoromethyl)thieno[2,3-d]pyrimidin-4-yl)-N3-phenylpropane-1,3-diamine]	3300 nM
Cc1cc2c(NCCCn3ccc4ccccc43)nc(C(F)(F)F)nc2s1 [Example 177, N-(3-(1H-indol-1-yl)propyl)-6-methyl-2-(trifluoromethyl) thieno[2,3-d] pyrimidin-4-amine]	4700 nM
Cc1cc2c(NCCCc3ccc(N(C)C)cc3)nc(C(F)(F)F)nc2s1 [Example 178, N-(3-(4-(dimethylamino)phenyl)propyl)-6-methyl-2-(trifluoromethyl) thieno[2,3-d] pyrimidin-4-amine]	1300 nM
Cc1cc2c(NCCCc3cccc(C(F)(F)F)c3)nc(C(F)(F)F)nc2s1 [Example 179, 6-methyl-2-(trifluoromethyl)-N-(3-(3-(trifluoromethyl)phenyl)propyl) thieno[2,3-d] pyrimidin-4-amine]	1700 nM
Cc1cc2c(NCCc3ccc4ccccc4n3)nc(C(F)(F)F)nc2s1 [Example 180, 6-methyl-N-(2-(quinolin-2-yl)ethyl)-2-(trifluoromethyl) thieno[2,3-d] pyrimidin-4-amine]	> 10000 nM
Cc1cc2c(N[C@@H]3C[C@H]3c3ccc(F)cc3)nc(C(F)(F)F)nc2s1 [Example 181, N-((1R,2S)-2-(4-fluorophenyl)cyclopropyl)-6-methyl-2-(trifluoromethyl) thieno[2,3-d] pyrimidin-4-amine]	1300 nM
Cc1cc2c(NCCC(=O)Nc3ccccc3)nc(C(F)(F)F)nc2s1 [Example 182, 3-((6-methyl-2-(trifluoromethyl)thieno[2,3-d]pyrimidin-4-yl)amino)-N-phenylpropanamide]	> 10000 nM
Cc1cc2c(NCCn3cccc3)nc(C(F)(F)F)nc2s1 [Example 183, N-(2-(1H-pyrrol-1-yl)ethyl)-6-methyl-2-(trifluoromethyl) thieno[2,3-d]pyrimidin-4-amine]	> 10000 nM
Cc1cc2c(NCCCc3ccc(O)cc3)nc(C(F)(F)F)nc2s1 [Example 184, 4-(3-((6-methyl-2-(trifluoromethyl)thieno[2,3-d]pyrimidin-4-yl)amino)propyl) phenol]	> 10000 nM

SMILES	IC50
Cc1cc2c(NCCCc3ccc(F)cc3)nc(C(F)(F)F)nc2s1 [Example 185, N-(3-(4-fluorophenyl)propyl)-6-methyl-2-(trifluoromethyl) thieno[2,3-d] pyrimidin-4-amine]	2300 nM
Cc1cc2c(NCC(C)(C)Cc3ccccc3)nc(C(F)(F)F)nc2s1 [Example 186, N-(2,2-dimethyl-3-phenylpropyl)-6-methyl-2-(trifluoromethyl) thieno[2,3-d] pyrimidin-4-amine]	> 10000 nM
Cc1cc2c(NCCC(C)c3ccccc3)nc(C(F)(F)F)nc2s1 (stereo not drawn) [Example 187, 6-methyl-N-(3-phenylbutyl)-2-(trifluoromethyl) thieno[2,3-d] pyrimidin-4-amine]	9100 nM
Cc1cc2c(NCCCc3ccccc3F)nc(C(F)(F)F)nc2s1 [Example 188, N-(3-(2-fluorophenyl)propyl)-6-methyl-2-(trifluoromethyl) thieno[2,3-d] pyrimidin-4-amine]	5100 nM
CCc1nc(NCCCc2ccccc2OC)c2cc(C)sc2n1 [Example 189, 2-ethyl-N-(3-(2-methoxyphenyl)propyl)-6-methylthieno[2,3-d]pyrimidin-4-amine]	2800 nM
CCc1nc(NCCCc2cccc(C(F)(F)F)c2)c2cc(C)sc2n1 [Example 190, 2-ethyl-6-methyl-N-(3-(3-(trifluoromethyl)phenyl)propyl) thieno[2,3-d] pyrimidin-4-amine]	550 nM
CCc1nc(NCCCc2ccc(F)cc2)c2cc(C)sc2n1 [Example 191, 2-ethyl-N-(3-(4-fluorophenyl)propyl)-6-methylthieno[2,3-d]pyrimidin-4-amine]	360 nM
CCc1nc(NCCCN2CCCc3ccccc32)c2cc(C)sc2n1 [Example 192, N-(3-(3,4-dihydroquinolin-1(2H)-yl)propyl)-2-ethyl-6-methylthieno[2,3-d]pyrimidin-4-amine]	930 nM
CCc1nc(NCC#Cc2ccccc2)c2cc(C)sc2n1 [Example 193, 2-ethyl-6-methyl-N-(3-phenylprop-2-yn-1-yl)thieno[2,3-d]pyrimidin-4-amine]	1800 nM
CCc1nc(NCC(O)Cc2ccccc2)c2cc(C)sc2n1 (stereo not drawn) [Example 194, 1-((2-ethyl-6-methylthieno[2,3-d]pyrimidin-4-yl)amino)-3-phenylpropan-2-ol]	> 10000 nM
CCc1nc(NCCCN(C)c2ccccc2)c2cc(C)sc2n1 [Example 195, N1-(2-ethyl-6-methylthieno[2,3-d]pyrimidin-4-yl)-N3-methyl-N3-phenylpropane-1,3-diamine]	680 nM
CCc1nc(NCCCn2ccc3ccccc32)c2cc(C)sc2n1 [Example 196, N-(3-(1H-indol-1-yl)propyl)-2-ethyl-6-methylthieno[2,3-d]pyrimidin-4-amine]	450 nM
CCc1nc(NCCCn2cccn2)c2cc(C)sc2n1 [Example 197, N-(3-(1H-pyrazol-1-yl)propyl)-2-ethyl-6-methylthieno[2,3-d]pyrimidin-4-amine]	8200 nM
CCc1nc(NCCCc2cccc3ccccc23)c2cc(C)sc2n1 [Example 198, 2-ethyl-6-methyl-N-(3-(naphthalen-1-yl)propyl)thieno[2,3-d]pyrimidin-4-amine]	170 nM
CCc1nc(NCCCc2ccc(Br)cc2)c2cc(C)sc2n1 [Example 199, N-(3-(4-bromophenyl)propyl)-2-ethyl-6-methylthieno[2,3-d]pyrimidin-4-amine]	120 nM
CCc1nc(NCCCc2ccccc2F)c2cc(C)sc2n1 [Example 200, 2-ethyl-N-(3-(2-fluorophenyl)propyl)-6-methylthieno[2,3-d]pyrimidin-4-amine]	650 nM
CCc1nc(NCCCc2ccc(Oc3ccccc3)cc2)c2cc(C)sc2n1 [Example 201, 2-ethyl-6-methyl-N-(3-(4-phenoxyphenyl)propyl)thieno[2,3-d]pyrimidin-4-amine]	610 nM
CCc1nc(NCCCc2cccc(Br)c2)c2cc(C)sc2n1 [Example 202, N-(3-(3-bromophenyl)propyl)-2-ethyl-6-methylthieno[2,3-d]pyrimidin-4-amine]	260 nM
CCc1nc(NCCCc2ccc(C(C)(C)C)cc2)c2cc(C)sc2n1 [Example 203, N-(3-(4-(tert-butyl)phenyl)propyl)-2-ethyl-6-methylthieno[2,3-d]pyrimidin-4-amine]	89 nM
Cc1cc2c(NCCCc3ccc(Br)cc3)nc(C(F)(F)F)nc2s1 [Example 204, N-(3-(4-bromophenyl)propyl)-6-methyl-2-(trifluoromethyl) thieno[2,3-d] pyrimidin-4-amine]	1900 nM
Cc1cc2c(NCCCc3cccc4ccccc34)nc(C(F)(F)F)nc2s1 [Example 205, 6-methyl-N-(3-(naphthalen-1-yl)propyl)-2-(trifluoromethyl) thieno[2,3-d] pyrimidin-4-amine]	1200 nM

Source: US20240279236A1, “COMPOUNDS AND METHODS OF TREATING TUBERCULOSIS” (Fimbrion Therapeutics, Inc., priority 2021, published 2024)
